Measurements taken from patent publication US8334382B2, “Substituted biaryl piperazinyl-pyridine analogues” (Neurogen Corporation, priority 2004, dated 2012).
pIC50: −log10 of the molar value.

Molecular target: T1, human capsaicin receptor (Homo sapiens, UniProt Q8NER1)
T1 construct: expressed in transfected cells; host or cells: HEK293, stably transfected with pBK-CMV construct
Test: Calcium mobilization assay, determination of antagonist activity
Assay type: cell-based
Conditions: capsaicin at EC50; cells expressing human capsaicin receptor; Example 6
Method: A cDNA encoding full length human capsaicin receptor (SEQ ID NO:1, 2 or 3 of U.S. Pat. No. 6,482,611) is subcloned in the plasmid pBK-CMV (Stratagene, La Jolla, Calif.) for recombinant expression in mammalian cells.
Human embryonic kidney (HEK293) cells are transfected with the pBK-CMV expression construct encoding the full length human capsaicin receptor using standard methods. The transfected cells are selected for two weeks in media containing G418 (400 μg/ml) to obtain a pool of stably transfected cells. Independent clones are isolated from this pool by limiting dilution to obtain clonal stable cell lines for use in subsequent experiments.
Cells transfected with expression plasmids (as described in Example 4) and thereby expressing human capsaicin receptor are seeded and grown to 70-90% confluency in FALCON black-walled, clear-bottomed 96-well plates (#3904, BECTON-DICKINSON, Franklin Lakes, N.J.). The culture medium is emptied from the 96 well plates and FLUO-3 AM calcium sensitive dye (Molecular Probes, Eugene, Oreg.) is added to each well (dye solution: 1 mg FLUO-3 AM, 440 μL DMSO and 440 μl 20% pluronic acid in DMSO, diluted 1:250 in Krebs-Ringer HEPES (KRH) buffer (25 mM HEPES, 5 mM KCl, 0.96 mM NaH2PO4, 1 mM MgSO4, 2 mM CaCl2, 5 mM glucose, 1 mM probenecid, pH 7.4), 50 μl diluted solution per well). Plates are covered with aluminum foil and incubated at 37° C. for 1-2 h in an environment containing 5% CO2. After the incubation, the dye is emptied from the plates, and the cells are washed once with KRH buffer, and resuspended in KRH buffer.
To measure the ability of a test compound to agonize or antagonize a calcium mobilization response in cells expressing capsaicin receptors to capsaicin or other vanilloid agonist, the EC50 of the agonist capsaicin is first determined. An additional 20 μl of KRH buffer and 1 μl DMSO is added to each well of cells, prepared as described above. 100 μl capsaicin in KRH buffer is automatically transferred by the FLIPR instrument to each well. Capsaicin-induced calcium mobilization is monitored using either FLUOROSKAN ASCENT (Labsystems; Franklin, Mass.) or FLIPR (fluorometric imaging plate reader system; Molecular Devices, Sunnyvale, Calif.) instruments. Data obtained between 30 and 60 seconds after agonist application are used to generate an 8-point concentration response curve, with final capsaicin concentrations of 1 nM to 3 μM. KALEIDAGRAPH software (Synergy Software, Reading, Pa.) is used to fit the data to the equation: y=a*(1/(1+(b/x)^c)) to determine the 50% excitatory concentration (EC50) for the response. In this equation, y is the maximum fluorescence signal, x is the concentration of the agonist or antagonist (in this case, capsaicin), a is the Emax, b corresponds to the EC50 value and c is the Hill coefficient. Determination of Agonist Activity
Test compounds are dissolved in DMSO, diluted in 20 μl KRH buffer so that the final concentration of test compounds in the assay well is between 1 μM and 5 μM, and added to cells prepared as described above. The 96 well plates containing prepared cells and test compounds are incubated in the dark, at room temperature for 0.5 to 6 h. It is important that the incubation not continue beyond 6 h. Just prior to determining the fluorescence response, 100 μl capsaicin in KRH buffer at twice the EC50 concentration determined as described above is automatically added by the FLIPR instrument to each well of the 96 well plate for a final sample volume of 200 μl and a final capsaicin concentration equal to the EC50. The final concentration of test compounds in the assay wells is between 1 μM and 5 μM. […] The concentration of antagonist required to provide a 50% decrease, relative to the response observed in the presence of capsaicin and without antagonist, is the IC50 for the antagonist, and is preferably below 1 micromolar, 100 nanomolar, 10 nanomolar or 1 nanomolar.

T1 sequence (Q8NER1 whole entry): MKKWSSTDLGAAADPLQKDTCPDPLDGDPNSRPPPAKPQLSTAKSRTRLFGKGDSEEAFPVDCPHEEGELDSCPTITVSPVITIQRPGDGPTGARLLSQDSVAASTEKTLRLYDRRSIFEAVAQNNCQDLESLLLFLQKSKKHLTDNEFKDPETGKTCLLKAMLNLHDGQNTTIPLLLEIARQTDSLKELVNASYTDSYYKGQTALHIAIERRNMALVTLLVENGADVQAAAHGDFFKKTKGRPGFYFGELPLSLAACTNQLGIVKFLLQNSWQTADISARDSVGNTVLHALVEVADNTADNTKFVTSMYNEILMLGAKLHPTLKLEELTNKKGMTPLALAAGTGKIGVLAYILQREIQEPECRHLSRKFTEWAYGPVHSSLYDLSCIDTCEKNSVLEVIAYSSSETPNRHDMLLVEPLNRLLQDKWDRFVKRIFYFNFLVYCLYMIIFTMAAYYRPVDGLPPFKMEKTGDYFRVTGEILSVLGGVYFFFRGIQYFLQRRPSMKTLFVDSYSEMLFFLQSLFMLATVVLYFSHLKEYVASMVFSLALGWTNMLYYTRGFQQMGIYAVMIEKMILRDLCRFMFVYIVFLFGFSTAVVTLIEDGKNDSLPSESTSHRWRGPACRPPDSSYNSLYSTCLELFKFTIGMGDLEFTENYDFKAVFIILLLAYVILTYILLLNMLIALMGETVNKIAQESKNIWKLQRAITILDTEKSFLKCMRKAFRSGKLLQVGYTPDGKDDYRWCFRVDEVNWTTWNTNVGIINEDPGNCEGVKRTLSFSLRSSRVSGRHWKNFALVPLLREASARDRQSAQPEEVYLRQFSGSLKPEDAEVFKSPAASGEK

pIC50, ≥ 6.00:
CCCN1CCN(c2nc(-c3ccc(F)c(Cl)c3)cc(N3CCN(c4ncc(C(=O)O)cc4Cl)CC3)n2)CC1 [Example 17, 5-Chloro-6-{4-[6-(3-chloro-4-fluoro-phenyl)-2-(4-propyl-piperazin-1-yl)-pyrimidin-4-yl]-piperazin-1-yl}-nicotinic acid]
CCOC(=O)c1cnc(N2CCN(c3cc(-c4ccc(F)c(Cl)c4)nc(N4CCCC4C)n3)[C@H](C)C2)c(Cl)c1 (stereo partly drawn) [Example 18, 5-Chloro-6-{4-[6-(3-chloro-4-fluoro-phenyl)-2-(2-methyl-pyrrolidin-l-yl)-pyrimidin-4-yl]-3-(R)-methyl-piperazin-1-yl}-nicotinic acid ethyl ester]
CC1CCCN1c1nc(-c2ccc(F)c(Cl)c2)cc(N2CCN(c3ncc(CN(C)C)cc3Cl)CC2)n1 (stereo not drawn) [Example 19, (5-Chloro-6-{4-[6-(3-chloro-4-fluoro-phenyl)-2-(2-methyl-pyrrolidin-l-yl)-pyrimidin-4-yl]-piperazin-1-yl}-pyridin-3-ylmethyl)-dimethyl-amine]
COC(=O)c1cnc(N2CCN(c3cc(-c4ccc(F)c(Cl)c4)nc(N4CCCC4C)n3)CC2)c(Cl)c1 (stereo not drawn) [Example 20, 5-Chloro-6-{4-[6-(3-chloro-4-fluoro-phenyl)-2-(2-methyl-pyrrolidin-1-yl)-pyrimidin-4-yl]-piperazin-1-yl}-nicotinic acid methyl ester]
CC1CCCN1c1nc(-c2ccc(F)c(Cl)c2)cc(N2CCN(c3ncc(C(=O)O)cc3Cl)CC2)n1 (stereo not drawn) [Example 21, 5-Chloro-6-{4-[6-(3-chloro-4-fluoro-phenyl)-2-(2-methyl-pyrrolidin-1-yl)-pyrimidin-4-yl]-piperazin-1-yl}-nicotinic acid]
COc1ccc([N+](=O)[O-])c(N2CCN(c3cc(-c4ccc(F)c(Cl)c4)nc(N4CCCC4C)n3)CC2)n1 (stereo not drawn) [Example 22, 4-(3-Chloro-4-fluoro-phenyl)-6-[4-(6-methoxy-3-nitro-pyridin-2-yl)-piperazin-1-yl]-2-(2-methyl-pyrrolidin-1-yl)-pyrimidine]
CCCN1CCN(c2nc(-c3ccc(F)c(Cl)c3)cc(N3CCN(c4ncc(C(=O)OCC)cc4Cl)CC3)n2)CC1 [Example 23, 5-Chloro-6-{4-[6-(3-chloro-4-fluoro-phenyl)-2-(4-propyl-piperazin-l-yl)-pyrimidin-4-yl] - piperazin-1-yl}-nicotinic acid ethyl ester]
CC1CCCN1c1nc(-c2ccc(F)c(Cl)c2)cc(N2CCN(c3ncc(C(N)=O)cc3Cl)C[C@H]2C)n1 (stereo partly drawn) [Example 24, 5-Chloro-6-{4-[6-(3-chloro-4-fluoro-phenyl)-2-(2-methyl-pyrrolidin-1-yl)-pyrimidin-4-yl]-3-(R)-methyl-piperazin-l-yl}-nicotinamide]
CC1CCCN1c1nc(-c2ccc(F)cc2)cc(N2CCN(c3ncc(C(=O)O)cc3Cl)CC2)n1 (stereo not drawn) [Example 25, 5-Chloro-6-{4-[6-(4-fluoro-phenyl)-2-(2-methyl-pyrrolidin-1-yl)-pyrimidin-4-yl]-piperazin-1-yl}-nicotinic acid]
CC1CCCN1c1nc(-c2ccc(F)cc2)cc(N2CCN(c3ncc(CO)cc3Cl)CC2)n1 (stereo not drawn) [Example 26, (5-Chloro-6-{4-[6-(4-fluoro-phenyl)-2-(2-methyl-pyrrolidin-1-yl)-pyrimidin-4-yl]-piperazin-1-yl}-pyridin-3-yl)-methanol]
CCOC(=O)c1cnc(N2CCN(c3cc(-c4ccc(F)cc4)nc(N4CCCC4C)n3)[C@H](C)C2)c(Cl)c1 (stereo partly drawn) [Example 27, 5-Chloro-6-{4-[6-(4-fluoro-phenyl)-2-(2-methyl-pyrrolidin-1-yl)-pyrimidin-4-yl]-3-(R)-methyl-piperazin-1-yl}-nicotinic acid ethyl ester]
CCOC(=O)c1cnc(N2CCN(c3cc(-c4ccc(F)cc4)nc(N4CCCC4)n3)[C@H](C)C2)c(Cl)c1 [Example 28, 5-Chloro-6-{4-[6-(4-fluoro-phenyl)-2-pyrrolidin-1-yl-pyrimidin-4-yl]-3-(R)-methyl-piperazin-1-yl}-nicotinic acid ethyl ester]
CC1CCCN1c1nc(-c2ccc(F)cc2)cc(N2CCN(c3ncc(C(=O)O)cc3Cl)C[C@H]2C)n1 (stereo partly drawn) [Example 29, 5-Chloro-6-{4-[6-(4-fluoro-phenyl)-2-(2-methyl-pyrrolidin-1-yl)-pyrimidin-4-yl]-3-(R)-methyl-piperazin-1-yl}-nicotinic acid]
C[C@@H]1CN(c2ncc(C(=O)O)cc2Cl)CCN1c1cc(-c2ccc(F)cc2)nc(N2CCCC2)n1 [Example 30, 5-Chloro-6-{4-[6-(4-fluoro-phenyl)-2-pyrrolidin-1-yl-pyrimidin-4-yl]-3-(R)-methyl-piperazin-1-yl}-nicotinic acid]
CC1CCCN1c1nc(-c2ccc(F)cc2)cc(N2CCN(c3ncc(CO)cc3Cl)C[C@H]2C)n1 (stereo partly drawn) [Example 31, (5-Chloro-6-{4-[6-(4-fluoro-phenyl)-2-(2-methyl-pyrrolidin-1-yl)-pyrimidin-4-yl]-3-(R)-methyl-piperazin-1-yl}-pyridin-3-yl)-methanol]
C[C@@H]1CN(c2ncc(CO)cc2Cl)CCN1c1cc(-c2ccc(F)cc2)nc(N2CCCC2)n1 [Example 32, (5-Chloro-6-{4-[6-(4-fluoro-phenyl)-2-pyrrolidin-1-yl-pyrimidin-4-yl]-3-(R)-methyl-piperazin-1-yl}-pyridin-3-yl)-methanol]
CC1CCCN1c1nc(-c2ccc(F)cc2)cc(N2CCN(c3ncc(C(N)=O)cc3Cl)C[C@H]2C)n1 (stereo partly drawn) [Example 33, 5-Chloro-6-{4-[6-(4-fluoro-phenyl)-2-(2-methyl-pyrrolidin-1-yl)-pyrimidin-4-yl]-3-(R)-methyl-piperazin-1-yl}-nicotinamide]
Cc1cc(C(=O)O)cnc1N1CCN(c2cc(-c3ccc(F)cc3)nc(N3CCCC3C)n2)[C@H](C)C1 (stereo partly drawn) [Example 34, 6-{4-[6-(4-Fluoro-phenyl)-2-(2-methyl-pyrrolidin-1-yl)-pyrimidin-4-yl]-3-(R)-methyl-piperazin-1-yl}-5-methyl-nicotinic acid]
Cc1cc(C(=O)O)cnc1N1CCN(c2cc(-c3ccc(F)cc3)nc(N3CCCC3C)n2)CC1 (stereo not drawn) [Example 36, 6-{4-[6-(4-Fluoro-phenyl)-2-(2-methyl-pyrrolidin-1-yl)-pyrimidin-4-yl]-piperazin-1-yl}-5-methyl-nicotinic acid]
Cc1cc(CO)cnc1N1CCN(c2cc(-c3ccc(F)cc3)nc(N3CCCC3C)n2)[C@H](C)C1 (stereo partly drawn) [Example 37, (6-{4-[6-(4-Fluoro-phenyl)-2-(2-methyl-pyrrolidin-1-yl)-pyrimidin-4-yl]-3-(R)-methyl-piperazin-1-yl}-5-methyl-pyridin-3-yl)-methanol]
Cc1cc(CO)cnc1N1CCN(c2cc(-c3ccc(F)cc3)nc(N3CCCC3C)n2)CC1 (stereo not drawn) [Example 38, (6-{4-[6-(4-Fluoro-phenyl)-2-(2-methyl-pyrrolidin-1-yl)-pyrimidin-4-yl]-piperazin-1-yl}-5-methyl-pyridin-3-yl)-methanol]
